Measured values reported in patent publication US20250214976A1, “GPR35 MODULATORS AND USES THEREOF” (Crossignal Therapeutics, Inc., priority 2022, published 2025).

Molecular target: T1, human GPR35 (Homo sapiens, UniProt Q9HC97)
T1 construct: expressed in transfected cells; host or cells: HEK293
Assay: Luciferase Reporter Assay (YAP responsive element) in HEK293 cells stably transfected with human GPR35
Format: cell-based
Conditions: overnight incubation
Method: HEK293 cells stably transfected with human GPR35 were maintained in Dulbecco's Modified Eagle Medium (DMEM) supplemented with 10% FBS and 300 μg/mL Zeocin and 200 μg/mL Hygromycin at 37° C., 10% CO2. On Day 1, cells were plated in poly-D-lysine coated 96-well tissue culture plate in regular growth medium (DMEM/10% FBS/300 μg/mL Zeocin/200 μg/mL Hygromycin. On the next day, luciferase reporter plasmid DNA with YAP responsive element was transfected into cells using lipofectamine 2000 (Invitrogen) following manufacture's protocol. After transfection for 6 hr., cells were treated with testing compounds in fasting DMEM medium (phenol red free, FBS free) at varying compound concentrations ranging from 10 μM to […] in a 3-fold serial diluted fashion. After an overnight incubation, the luciferase activities were measured with SteadyLite Plus Kit (PerkinElmer) according to manufacturer's protocol. IC50 was determined by fitting the dose-response data to a four-parameter logistic curve using GraphPad Prism.
The symbol “+” indicates IC50 is greater than […]. “++” indicates IC50>100 nM but ≤[…]. “+++” indicates IC50≤100 nM.

T1 sequence (Q9HC97 whole entry): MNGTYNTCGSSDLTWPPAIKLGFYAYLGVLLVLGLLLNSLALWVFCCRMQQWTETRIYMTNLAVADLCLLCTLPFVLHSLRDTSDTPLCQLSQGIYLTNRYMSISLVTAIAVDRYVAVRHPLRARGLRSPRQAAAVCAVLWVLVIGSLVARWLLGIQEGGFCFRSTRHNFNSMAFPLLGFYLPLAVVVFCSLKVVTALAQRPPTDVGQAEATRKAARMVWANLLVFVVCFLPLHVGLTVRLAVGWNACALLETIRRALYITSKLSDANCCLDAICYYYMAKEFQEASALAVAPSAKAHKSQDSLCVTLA

Compound	IC50 [nM]
C[C@H](Oc1ccc(NC(=O)c2coc3cc(-c4nnn[nH]4)c(F)cc23)cc1)c1ccc(F)cc1Cl (single isomer, unassigned) [Compound 1-25]	> 1000
C[C@@H](Oc1ccc(NC(=O)c2coc3cc(-c4nnn[nH]4)c(F)cc23)cc1)c1ccc(F)cc1Cl (single isomer, unassigned) [Compound 1-26]	> 1000
C[C@@H](Oc1ccc(NC(=O)c2coc3cc(-c4nnn[nH]4)c(F)cc23)cc1F)C(F)(F)F (single isomer, unassigned) [Compound 1-31]	100 to 1000
O=C(Nc1ccc(OC2CCC2)c(F)c1)c1coc2cc(-c3nnn[nH]3)ccc12 [Compound 1-2, N-(4-cyclobutoxy-3-fluorophenyl)-6-(1H-tetrazol-5-yl)benzofuran-3-carboxamide]	≤ 100
O=C(O)c1ccc2c(C(=O)Nc3ccc(OC4CCC4)c(F)c3)coc2c1 [Compound 1-3, 3-((4-cyclobutoxy-3-fluorophenyl)carbamoyl)benzofuran-6-carboxylic acid]	> 1000
O=C(Nc1ccc(OC2CCC2)c(F)c1)c1coc2cc(OCc3nnn[nH]3)ccc12 [Compound 1-4, 6-((1H-tetrazol-5-yl)methoxy)-N-(4-cyclobutoxy-3-fluorophenyl)benzofuran-3-carboxamide]	> 1000
O=C(Nc1ccc(OCc2ccc(F)cc2Cl)c(F)c1)c1coc2cc(OCc3nnn[nH]3)ccc12 [Compound 1-5, 6-((1H-tetrazol-5-yl)methoxy)-N-(4-((2-chloro-4-fluorobenzyl)oxy)-3-fluorophenyl)benzofuran-3-carboxamide]	> 1000
O=C(Nc1ccc(OCc2ccc(F)cc2Cl)c(F)c1)c1coc2cc(-c3nnn[nH]3)ccc12 [Compound 1-6, N-(4-((2-chloro-4-fluorobenzyl)oxy)-3-fluorophenyl)-6-(1H-tetrazol-5-yl)benzofuran-3-carboxamide]	100 to 1000
O=C(Nc1ccc(OC2CCCC2)c(F)c1)c1coc2c(-c3nnn[nH]3)cccc12 [Compound 1-7, N-(4-(cyclopentyloxy)-3-fluorophenyl)-7-(1H-tetrazol-5-yl)benzofuran-3-carboxamide]	> 1000
O=C(Nc1ccc(OCc2ccc(F)cc2Cl)cc1)c1coc2cc(OCc3nnn[nH]3)ccc12 [Compound 1-8, 6-((1H-tetrazol-5-yl)methoxy)-N-(4-((2-chloro-4-fluorobenzyl)oxy)phenyl)benzofuran-3-carboxamide]	> 1000
O=C(Nc1ccc(OC2CCCC2)c(F)c1F)c1coc2cc(-c3nnn[nH]3)ccc12 [Compound 1-9, N-(4-(cyclopentyloxy)-2,3-difluorophenyl)-6-(1H-tetrazol-5-yl)benzofuran-3-carboxamide]	> 1000
O=C(Nc1ccc(OCc2ccc(F)cc2Cl)c(F)c1)c1coc2c(-c3nnn[nH]3)cccc12 [Compound 1-11, N-(4-((2-chloro-4-fluorobenzyl)oxy)-3-fluorophenyl)-7-(1H-tetrazol-5-yl)benzofuran-3-carboxamide]	> 1000
O=C(Nc1ccc(F)c(F)c1OC1CCCC1)c1coc2cc(-c3nnn[nH]3)ccc12 [Compound 1-12, N-(2-(cyclopentyloxy)-3,4-difluorophenyl)-6-(1H-tetrazol-5-yl)benzofuran-3-carboxamide]	> 1000
O=C(Nc1ccc(OCc2ccc(Cl)cc2Cl)cc1)c1coc2cc(-c3nnn[nH]3)c(F)cc12 [Compound 1-19, N-(4-((2,4-dichlorobenzyl)oxy)phenyl)-5-fluoro-6-(1H-tetrazol-5-yl)benzofuran-3-carboxamide]	100 to 1000
O=C(Nc1ccc(O[C@H]2CCOC2)c(F)c1)c1coc2cc(-c3nnn[nH]3)c(F)cc12 [Compound 1-21, (S)-5-fluoro-N-(3-fluoro-4-((tetrahydrofuran-3-yl)oxy)phenyl)-6-(1H-tetrazol-5-yl)benzofuran-3-carboxamide]	100 to 1000
O=C(Nc1ccc(O[C@@H]2CCOC2)c(F)c1)c1coc2cc(-c3nnn[nH]3)c(F)cc12 [Compound 1-22, (R)-5-fluoro-N-(3-fluoro-4-((tetrahydrofuran-3-yl)oxy)phenyl)-6-(1H-tetrazol-5-yl)benzofuran-3-carboxamide]	> 1000
NC(=O)c1cc2occ(C(=O)Nc3ccc(OCc4ccc(F)cc4Cl)cc3)c2cc1F [Compound 1-23, N3-(4-((2-chloro-4-fluorobenzyl)oxy)phenyl)-5-fluorobenzofuran-3,6-dicarboxamide]	> 1000
O=C(Nc1ccc(OCc2ccc(F)cc2Cl)cc1)c1coc2cc(-c3noc(=O)[nH]3)c(F)cc12 [Compound 1-24, N-(4-((2-chloro-4-fluorobenzyl)oxy)phenyl)-5-fluoro-6-(5-oxo-4,5-dihydro-1,2,4-oxadiazol-3-yl)benzofuran-3-carboxamide]	≤ 100
O=C(Nc1ccc(OC2CC(F)(F)C2)c(F)c1)c1coc2cc(-c3nnn[nH]3)c(F)cc12 [Compound 1-27, N-(4-(3,3-difluorocyclobutoxy)-3-fluorophenyl)-5-fluoro-6-(1H-tetrazol-5-yl)benzofuran-3-carboxamide]	100 to 1000
O=C(Nc1ccc(OC2COC2)c(F)c1)c1coc2cc(-c3nnn[nH]3)c(F)cc12 [Compound 1-28, 5-fluoro-N-(3-fluoro-4-(oxetan-3-yloxy)phenyl)-6-(1H-tetrazol-5-yl)benzofuran-3-carboxamide]	100 to 1000
O=C(Nc1ccc(OCc2ccc(F)cc2Cl)cc1)c1coc2cc(Oc3nnn[nH]3)ccc12 [Compound 1-29, 6-((1H-tetrazol-5-yl)oxy)-N-(4-((2-chloro-4-fluorobenzyl)oxy)phenyl)benzofuran-3-carboxamide]	> 1000
O=C(Nc1ccc(N2CCC[C@H]2C(F)(F)F)c(F)c1)c1coc2cc(-c3nnn[nH]3)c(F)cc12 [Compound 1-32, (S)-5-fluoro-N-(3-fluoro-4-(2-(trifluoromethyl)pyrrolidin-1-yl)phenyl)-6-(1H-tetrazol-5-yl)benzofuran-3-carboxamide]	100 to 1000
O=C(Nc1ccc(N2CCC[C@@H]2C(F)(F)F)c(F)c1)c1coc2cc(-c3nnn[nH]3)c(F)cc12 [Compound 1-33, (R)-5-fluoro-N-(3-fluoro-4-(2-(trifluoromethyl)pyrrolidin-1-yl)phenyl)-6-(1H-tetrazol-5-yl)benzofuran-3-carboxamide]	100 to 1000
O=C(Nc1ccc(N2CCC(F)(F)C2)c(F)c1)c1coc2cc(-c3nnn[nH]3)c(F)cc12 [Compound 1-34, N-(4-(3,3-difluoropyrrolidin-1-yl)-3-fluorophenyl)-5-fluoro-6-(1H-tetrazol-5-yl)benzofuran-3-carboxamide]	≤ 100

More lines, now with the values ahead:

IC50 [nM]	Compound
≤ 100	C[C@H](Oc1ccc(NC(=O)c2coc3cc(-c4nnn[nH]4)c(F)cc23)cc1F)C(F)(F)F (single isomer, unassigned) [Compound 1-30]
≤ 100	O=C(Nc1ccc(O[C@H]2CCC(F)(F)C2)c(F)c1)c1coc2cc(-c3nnn[nH]3)c(F)cc12 (single isomer, unassigned) [Compound 1-36]
≤ 100	O=C(Nc1ccc(O[C@@H]2CCC(F)(F)C2)c(F)c1)c1coc2cc(-c3nnn[nH]3)c(F)cc12 (single isomer, unassigned) [Compound 1-37]
≤ 100	O=C(Nc1ccc(OC2CCCC2)c(F)c1)c1coc2cc(-c3nnn[nH]3)ccc12 [Compound 1-1, N-(4-(cyclopentyloxy)-3-fluorophenyl)-6-(1H-tetrazol-5-yl)benzofuran-3-carboxamide]
≤ 100	O=C(Nc1cc(F)c(OC2CCCC2)cc1F)c1coc2cc(-c3nnn[nH]3)ccc12 [Compound 1-10, N-(4-(cyclopentyloxy)-2,5-difluorophenyl)-6-(1H-tetrazol-5-yl)benzofuran-3-carboxamide]
≤ 100	O=C(Nc1ccc(OCc2ccc(F)cc2Cl)cc1)c1coc2cc(-c3nnn[nH]3)ccc12 [Compound 1-13, N-(4-((2-chloro-4-fluorobenzyl)oxy)phenyl)-6-(1H-tetrazol-5-yl)benzofuran-3-carboxamide]
≤ 100	O=C(Nc1ccc(C2CCCC2)c(F)c1)c1coc2cc(-c3nnn[nH]3)ccc12 [Compound 1-14, N-(4-cyclopentyl-3-fluorophenyl)-6-(1H-tetrazol-5-yl)benzofuran-3-carboxamide]
≤ 100	CC1(Oc2ccc(NC(=O)c3coc4cc(-c5nnn[nH]5)ccc34)cc2F)CC1 [Compound 1-15, N-(3-fluoro-4-(1-methylcyclopropoxy)phenyl)-6-(1H-tetrazol-5-yl)benzofuran-3-carboxamide]
≤ 100	CC1(Oc2ccc(NC(=O)c3coc4cc(-c5nnn[nH]5)c(F)cc34)cc2F)CC1 [Compound 1-16, 5-fluoro-N-(3-fluoro-4-(1-methylcyclopropoxy)phenyl)-6-(1H-tetrazol-5-yl)benzofuran-3-carboxamide]
≤ 100	O=C(Nc1ccc(C2CCCC2)c(F)c1)c1coc2cc(-c3nnn[nH]3)c(F)cc12 [Compound 1-17, N-(4-cyclopentyl-3-fluorophenyl)-5-fluoro-6-(1H-tetrazol-5-yl)benzofuran-3-carboxamide]
≤ 100	O=C(Nc1ccc(OCc2ccc(F)cc2Cl)cc1)c1coc2cc(-c3nnn[nH]3)c(F)cc12 [Compound 1-18, N-(4-((2-chloro-4-fluorobenzyl)oxy)phenyl)-5-fluoro-6-(1H-tetrazol-5-yl)benzofuran-3-carboxamide]
≤ 100	O=C(Nc1ccc(OC2CCCC2)c(F)c1)c1coc2cc(-c3nnn[nH]3)c(F)cc12 [Compound 1-20, N-(4-(cyclopentyloxy)-3-fluorophenyl)-5-fluoro-6-(1H-tetrazol-5-yl)benzofuran-3-carboxamide]
